Laboratory results taken from patent US20210283091A1, “DECREASING IMMUNE ACTIVITY THROUGH MODULATION OF POSTCELLULAR SIGNALING FACTORS” (FLAGSHIP PIONEERING INNOVATIONS V, INC., priority 2018, published 2021).

How the values were obtained:
[1] = system: HT1080 fibrosarcoma cells; assay: Viability of HT1080 fibrosarcoma cells treated with ferroptosis inducer, with or without ferroptosis inhibitor or siRNA; type: cell-based; conditions: various doses, 24 hours treatment
NFKB [2] = assay: NFKB reporter activity in THP1-Dual monocytes co-cultured with treated HT1080 cells; type: cell-based, human; conditions: HT1080 cells treated 24 hours, then co-culture with THP1-Dual cells 24 hours
Method: HT1080 fibrosarcoma cells were treated with either control (DMSO) or various doses of Erastin, piperazine erastin (PE), or imidazole ketoerastin (IKE) for 24 hours prior to co-culture with THP1-Dual cells for an additional 24 hours. Erastin was purchased from Selleckchem (Houston, Tex.) and dissolved in DMSO. Subsequently, the THP1 supernatants were assessed for nuclear factor kappa-light-chain-enhancer of activated B cells (NFKB) or interferon regulatory factor (IRF) reporter activity.
HT1080 cells were acquired from ATCC and THP1-Dual cells were acquired from InvivoGen (San Diego, Calif.). […] 24 hours later, 30 μl of supernatant was mixed with either 200 μl QuantiBlue (InvivoGen, San Diego, Calif.) (for NFKB reporter activity) or 50 μl QuantiLuc (for IRF reporter activity) and absorbance or luminescence was recorded on a Molecular Devices plate reader.
HT1080 fibrosarcoma cells were treated with various doses of Erastin (e.g. 0.8, 0.16, 0.31, 0.63, 1.25, 2.5, 5, 10 or 20 μM) alone or in combination with a ferroptosis inhibitor (1 μM Ferrostatin-1, 1 μM Liproxstatin-1, 100 μM Trolox, 25 μM β-Mercaptoethanol or 100 μM Deferoxamine) for 24 hours prior to co-culture with THP1-Dual cells for an additional 24 hours. […] Subsequently, the THP1 supernatant was assessed for NFKB activity. […]

NFKB [3] = assay: NFKB reporter activity in THP1-Dual monocytes co-cultured with treated A20 cells; type: cell-based, human; conditions: for NFKB signaling in THP1 monocytes: A20 cells treated 24 hours, then co-culture with THP1-Dual cells 24 hours
Method: A20 B-cell leukemia cells were treated with either control (DMSO) or various doses of RSL3, for 24 hours prior to co-culture with THP1-Dual cells for an additional 24 hours. RSL3 was purchased from Selleckchem (Houston, Tex.) and dissolved in DMSO. Subsequently, the THP1 supernatants were assessed for NFKB or IRF reporter activity.
A20 cells were acquired from ATCC and THP1-Dual cells acquired from InvivoGen (San Diego, Calif.). Both cell types were cultured in 96-well plates for the duration of the assay. 50,000 A20 cells were plated 24 hours prior to dosing with RSL3, with a final DMSO concentration of 0.5%. 24 hours post-treatment, THP1-Dual cells (25,000 cells/well) were added to the A20 cells. 24 hours later, 30 μl of supernatant was mixed with either 200 μl QuantiBlue (InvivoGen, San Diego, Calif.) or 50 μl QuantiLuc and absorbance or luminescence was recorded on a Molecular Devices plate reader.
A20 lymphoma cells were treated with various doses (e.g. 0.002, 0.005, 0.014, 0.041, 0.123, 0.370, 1.111, 3.333 and 10 μM) of a GPX4 inhibitor (RSL3, ML162 or ML210) in the presence or absence of 1 μM Ferrostatin-1 for 24 hours. ML162 was purchased from Cayman Chemical Company Inc and resuspended in DMSO. ML210 was purchased from Sigma-Aldrich and resuspended in DMSO. A20 lymphoma cells were also treated with DMSO as a negative control. After treatment with DMSO or a GPX4 inhibitor for 24 hours, the A20 lymphoma cells were co-cultured with THP1-Dual cells for an additional 24 hours. Subsequently, the THP1 supernatant was assessed for NFKB reporter activity. A20 cells were acquired from ATCC and THP1-Dual cells were acquired from InvivoGen (San Diego, Calif.). Both cell types were cultured in 96-well plates for the duration of the assay.

[4] = system: A20 B-cell leukemia cells; assay: Viability of A20 cells treated with GPX4 inhibitor, with or without Ferrostatin-1; type: cell-based; conditions: for viability of A20 cells: various doses, 24 hours treatment
NFKB [5] = assay: NFKB reporter activity in THP1-Dual monocytes co-cultured with treated Caki-1 cells; type: cell-based, human
Method: Caki-1 renal cell carcinoma cells were treated with either control (DMSO) or various doses of Erastin, for 24 hours prior to co-culture with THP1-Dual cells for an additional 24 hours. Erastin was purchased from Selleckchem (Houston, Tex.) and dissolved in DMSO. Subsequently, the THP1 supernatants were assessed for NFKB or IRF reporter activity. Caki-1 cells were acquired from ATCC and THP1-Dual cells acquired from InvivoGen (San Diego, Calif.). Both cell types were cultured in 96-well plates for the duration of the assay. 7.500 Caki-1 cells were plated 24 hours prior to dosing with Erastin, with a final DMSO concentration of 0.5%. 24 hours post-treatment, THP1-Dual cells (25,000 cells/well) were added to the Caki-1 cells. 24 hours later, 30 μl of supernatant was mixed with either 200 μl QuantiBlue (InvivoGen) or 50 μl QuantiLuc and absorbance or luminescence was recorded on a Molecular Devices plate reader. Caki-1 renal cell carcinoma cells were treated with either control (DMSO) or various doses of RSL3, for 24 hours prior to co-culture with THP1-Dual cells for an additional 24 hours. RSL3 was purchased from Selleckchem and dissolved in DMSO. Subsequently, the THP1 supernatants were assessed for NFKB or IRF reporter activity. Caki-1 cells were acquired from ATCC and THP1-Dual cells acquired from InvivoGen (San Diego, Calif.). Both cell types were cultured in 96-well plates for the duration of the assay. 7.500 Caki-1 cells were plated 24 hours prior to dosing with […], with a final DMSO concentration of 0.5%. 24 hours post-treatment, THP1-Dual cells (25,000 cells/well) were added to the Caki-1 cells. 24 hours later, 30 μl of supernatant was mixed with either 200 μl QuantiBlue (InvivoGen, San Diego, Calif.) or 50 μl QuantiFuc and absorbance or luminescence was recorded on a Molecular Devices plate reader. […] Subsequently, the THP1 supernatant was assessed for NFKB reporter activity. […]

[6] = system: Caki-1 renal cell carcinoma cells; assay: Viability of Caki-1 renal cell carcinoma cells treated with ferroptosis inducer, with or without Ferrostatin-1; type: cell-based
C57/B6 mice = assay: Dextran sodium sulfate colitis in mice; type: in vivo; conditions: 10 mg/kg, i.p., 3-4% dextran sodium sulfate 5 days, compared to vehicle
Method: C57/B6 mice are treated with vehicle or Ferrostatin (10 mg/kg, i.p) before the induction of colitis by administration of 3-4% dextran sodium sulfate in the drinking water for 5 days. An anti-inflammatory effect of ferrostatin compared to vehicle is confirmed by […], decreased diarrhea, and decreased weight loss. In addition, inhibition of neutrophil recruitment (innate immune response) by ferrostatin in confirmed by decreased myeloperoxidase activity in the colon (compared to vehicle).

## CC(C)Oc1ccc(C(=O)Cn2ccnc2)cc1-n1c(CN2CCN(C(=O)COc3ccc(Cl)cc3)CC2)nc2ccccc2c1=O [IKE, imidazole ketoerastin]
[1]
  viability of HT1080 cells: negatively affected the viability
NFKB [2]
  NFKB signaling in THP1 monocytes: elicited NFKB signaling

## Cc1onc(C(=O)N2CCN(C(c3ccc(Cl)cc3)c3ccc(Cl)cc3)CC2)c1[N+](=O)[O-] [ML210]
NFKB [3]
  NFKB signaling in THP1 monocytes: increased NFKB activity in THP1 cells in a dose dependent manner
[4]
  viability of A20 cells: decreased viability of the cells in a dose dependent manner

## COc1ccc(N(C(=O)CCl)C(C(=O)NCCc2ccccc2)c2cccs2)cc1Cl (stereo not drawn) [ML162]
NFKB [5]; Caki-1 cells treated 24 hours, then co-culture with THP1-Dual cells 24 hours
  NFKB signaling in THP1 monocytes: increased NFKB activity in THP1 cells in a dose dependent manner
NFKB [3]
  NFKB signaling in THP1 monocytes: increased NFKB activity in THP1 cells in a dose dependent manner
[4]
  viability of A20 cells: decreased viability of the cells in a dose dependent manner
[6]; various doses, 24 hours treatment
  viability of Caki-1 cells: decreased viability of the cells in a dose dependent manner

## CCOC(=O)c1ccc(NC2CCCCC2)c(N)c1 [Ferrostatin-1]
C57/B6 mice
  colon length: decreased
  diarrhea: decreased
  myeloperoxidase activity in the colon: decreased
  weight loss: decreased
NFKB [5]; 1 μM Ferrostatin
  effect on NFKB activity in THP1 cells increased by RSL3- or ML162-treated Caki-1 cells: attenuated
NFKB [3]; 1 μM Ferrostatin-1
  effect on NFKB activity in THP1 cells increased by GPX4 inhibitor-treated A20 lymphoma cells: attenuated
[4]; 1 μM Ferrostatin-1, 24 hours
  effect on viability of A20 lymphoma cells decreased by GPX4 inhibitor (RSL3, ML162 or ML210): attenuated
[6]; 1 μM Ferrostatin, 24 hours
  effect on viability of Caki-1 renal carcinoma cells decreased by GPX4 inhibitor (RSL3 or ML162): attenuated

## CC(C)Oc1ccc(CN2CCNCC2)cc1-n1c(CN2CCN(C(=O)COc3ccc(Cl)cc3)CC2)nc2ccccc2c1=O [PE, piperazine erastin]
[1]
  viability of HT1080 cells: negatively affected the viability
NFKB [2]
  NFKB signaling in THP1 monocytes: elicited NFKB signaling
